# Counter-ions that a name gives are not always drawn. Like-named read-outs stand apart in the source and are kept apart here.
# Columns and labels:
# HIV-1 [1] = settings: cited from earlier work; for Impact of monotherapy: log decrease in HIV-1 RNA: for six months to one year
# [2] = in vivo; cited from earlier work
# [3] = in vivo; cited from earlier work; remark: listed apart in the source
# HIV-1 [4] = settings: PBMC; cited from earlier work
# HIV-1 [5] = settings: T-cell lines; cited from earlier work
# [6] = system: host DNA and RNA polymerases; test: Reduction of cellular DNA (rDNA) or RNA (rRNA) levels in Huh7 replicon cells; type: cell-based
# [7] = system: locally advanced or metastatic pancreatic cancer; settings: 1000 mg/m^2 by 30 min infusion once weekly; 63 patients per arm; cited from earlier work
# [8] = human, in vivo; cited from earlier work
# [9] = human, in vivo; cited from earlier work; remark: listed apart in the source
# [10] = target: deoxycytidine kinase (dCK) (Cricetulus griseus, UniProt G3I4C0); settings: phosphorylation to the monophosphate; partially purified enzyme from CHO cells; cited from earlier work
# Chain of deoxycytidine kinase (dCK) (G3I4C0 entry or part of it): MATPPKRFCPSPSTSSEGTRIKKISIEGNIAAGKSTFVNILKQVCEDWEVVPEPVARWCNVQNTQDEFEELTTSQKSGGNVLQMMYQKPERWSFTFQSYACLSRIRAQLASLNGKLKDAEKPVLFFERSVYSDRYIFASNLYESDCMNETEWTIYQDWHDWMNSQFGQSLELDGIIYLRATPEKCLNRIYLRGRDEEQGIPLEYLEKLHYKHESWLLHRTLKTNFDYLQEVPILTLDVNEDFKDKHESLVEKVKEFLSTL
# cytidine deaminase = cytidine deaminase (Homo sapiens, UniProt P32320); settings: intracellular cytidine deaminase; cited from earlier work
# Chain of cytidine deaminase (P32320 whole entry): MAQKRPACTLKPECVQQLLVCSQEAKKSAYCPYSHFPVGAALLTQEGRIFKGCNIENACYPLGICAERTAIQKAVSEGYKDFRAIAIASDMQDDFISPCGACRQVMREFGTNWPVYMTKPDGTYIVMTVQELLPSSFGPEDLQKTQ
# HCV replicon RNA = test: HCV replicon system in Huh7 cells, Q-RT-PCR of replicon RNA; type: cell-based
# HCV = test: Antiviral activity of gemcitabine after single treatment in an HCV-infected patient; type: in vivo, Human
# From the text: Before the second dosage the baseline viral load was 6.49 log copies/mL. […] The HCV RNA measurement eight hours after the second dosage was 4.04 log copies/mL, indicating an approximate 2.5 log drop in eight hours.
# pancreatic cancer = settings: 63 patients previously treated with 5-FU; cited from earlier work
# [11] = cited from earlier work
# [12] = in vivo; cited from earlier work; remark: listed apart in the source
# [13] = system: locally advanced or metastatic NSCLC; settings: 28-day cycle, cited from earlier work; for objective response rate: first-line NSCLC
# friend leukemia virus = settings: under conditions that allowed normal weight gain; cited from earlier work
# human DNA polymerase a = target: T1, human DNA polymerase a (Homo sapiens, UniProt P09884); settings: dCTP over dFdCTP; cited from earlier work
# T1 sequence (P09884 1-1462): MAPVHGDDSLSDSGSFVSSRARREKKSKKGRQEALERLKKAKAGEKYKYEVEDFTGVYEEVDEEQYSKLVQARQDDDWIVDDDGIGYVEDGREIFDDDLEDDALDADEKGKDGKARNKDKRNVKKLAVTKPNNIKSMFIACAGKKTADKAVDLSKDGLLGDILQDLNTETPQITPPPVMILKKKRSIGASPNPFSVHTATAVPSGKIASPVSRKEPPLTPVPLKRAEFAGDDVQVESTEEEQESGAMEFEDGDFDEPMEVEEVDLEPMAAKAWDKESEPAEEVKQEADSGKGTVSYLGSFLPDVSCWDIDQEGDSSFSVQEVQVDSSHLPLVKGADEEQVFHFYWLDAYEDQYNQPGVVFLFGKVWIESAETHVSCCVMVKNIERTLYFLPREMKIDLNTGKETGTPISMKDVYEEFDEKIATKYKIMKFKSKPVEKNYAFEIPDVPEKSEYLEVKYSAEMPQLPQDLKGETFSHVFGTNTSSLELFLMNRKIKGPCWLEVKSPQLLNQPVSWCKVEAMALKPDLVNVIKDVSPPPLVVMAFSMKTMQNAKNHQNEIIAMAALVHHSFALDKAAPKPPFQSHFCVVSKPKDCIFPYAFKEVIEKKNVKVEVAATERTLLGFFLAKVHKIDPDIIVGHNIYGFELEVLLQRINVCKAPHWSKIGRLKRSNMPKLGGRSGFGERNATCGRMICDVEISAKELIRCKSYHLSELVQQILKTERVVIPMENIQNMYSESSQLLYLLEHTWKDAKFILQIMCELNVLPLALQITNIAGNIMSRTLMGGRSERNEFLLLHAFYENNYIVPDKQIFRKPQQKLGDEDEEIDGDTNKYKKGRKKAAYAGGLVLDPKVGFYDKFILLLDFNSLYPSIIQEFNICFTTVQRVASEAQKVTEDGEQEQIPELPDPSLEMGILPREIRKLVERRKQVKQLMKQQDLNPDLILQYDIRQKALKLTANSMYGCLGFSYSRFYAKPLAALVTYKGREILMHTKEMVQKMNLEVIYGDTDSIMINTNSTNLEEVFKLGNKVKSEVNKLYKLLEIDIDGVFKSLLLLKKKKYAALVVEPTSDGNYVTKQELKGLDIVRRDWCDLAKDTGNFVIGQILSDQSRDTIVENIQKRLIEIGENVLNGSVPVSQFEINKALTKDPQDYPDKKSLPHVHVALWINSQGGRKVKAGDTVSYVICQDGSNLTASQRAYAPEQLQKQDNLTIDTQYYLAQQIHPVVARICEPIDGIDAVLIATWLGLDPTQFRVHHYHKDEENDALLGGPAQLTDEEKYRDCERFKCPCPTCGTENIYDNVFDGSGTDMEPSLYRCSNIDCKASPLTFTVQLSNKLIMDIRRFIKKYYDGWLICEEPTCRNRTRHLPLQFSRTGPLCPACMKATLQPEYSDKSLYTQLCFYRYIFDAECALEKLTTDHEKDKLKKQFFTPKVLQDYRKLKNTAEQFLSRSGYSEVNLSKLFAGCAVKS
# human DNA polymerase ε = human DNA polymerase ε (Homo sapiens, UniProt Q07864); settings: dCTP over dFdCTP; cited from earlier work
# Chain of human DNA polymerase ε (Q07864 whole entry): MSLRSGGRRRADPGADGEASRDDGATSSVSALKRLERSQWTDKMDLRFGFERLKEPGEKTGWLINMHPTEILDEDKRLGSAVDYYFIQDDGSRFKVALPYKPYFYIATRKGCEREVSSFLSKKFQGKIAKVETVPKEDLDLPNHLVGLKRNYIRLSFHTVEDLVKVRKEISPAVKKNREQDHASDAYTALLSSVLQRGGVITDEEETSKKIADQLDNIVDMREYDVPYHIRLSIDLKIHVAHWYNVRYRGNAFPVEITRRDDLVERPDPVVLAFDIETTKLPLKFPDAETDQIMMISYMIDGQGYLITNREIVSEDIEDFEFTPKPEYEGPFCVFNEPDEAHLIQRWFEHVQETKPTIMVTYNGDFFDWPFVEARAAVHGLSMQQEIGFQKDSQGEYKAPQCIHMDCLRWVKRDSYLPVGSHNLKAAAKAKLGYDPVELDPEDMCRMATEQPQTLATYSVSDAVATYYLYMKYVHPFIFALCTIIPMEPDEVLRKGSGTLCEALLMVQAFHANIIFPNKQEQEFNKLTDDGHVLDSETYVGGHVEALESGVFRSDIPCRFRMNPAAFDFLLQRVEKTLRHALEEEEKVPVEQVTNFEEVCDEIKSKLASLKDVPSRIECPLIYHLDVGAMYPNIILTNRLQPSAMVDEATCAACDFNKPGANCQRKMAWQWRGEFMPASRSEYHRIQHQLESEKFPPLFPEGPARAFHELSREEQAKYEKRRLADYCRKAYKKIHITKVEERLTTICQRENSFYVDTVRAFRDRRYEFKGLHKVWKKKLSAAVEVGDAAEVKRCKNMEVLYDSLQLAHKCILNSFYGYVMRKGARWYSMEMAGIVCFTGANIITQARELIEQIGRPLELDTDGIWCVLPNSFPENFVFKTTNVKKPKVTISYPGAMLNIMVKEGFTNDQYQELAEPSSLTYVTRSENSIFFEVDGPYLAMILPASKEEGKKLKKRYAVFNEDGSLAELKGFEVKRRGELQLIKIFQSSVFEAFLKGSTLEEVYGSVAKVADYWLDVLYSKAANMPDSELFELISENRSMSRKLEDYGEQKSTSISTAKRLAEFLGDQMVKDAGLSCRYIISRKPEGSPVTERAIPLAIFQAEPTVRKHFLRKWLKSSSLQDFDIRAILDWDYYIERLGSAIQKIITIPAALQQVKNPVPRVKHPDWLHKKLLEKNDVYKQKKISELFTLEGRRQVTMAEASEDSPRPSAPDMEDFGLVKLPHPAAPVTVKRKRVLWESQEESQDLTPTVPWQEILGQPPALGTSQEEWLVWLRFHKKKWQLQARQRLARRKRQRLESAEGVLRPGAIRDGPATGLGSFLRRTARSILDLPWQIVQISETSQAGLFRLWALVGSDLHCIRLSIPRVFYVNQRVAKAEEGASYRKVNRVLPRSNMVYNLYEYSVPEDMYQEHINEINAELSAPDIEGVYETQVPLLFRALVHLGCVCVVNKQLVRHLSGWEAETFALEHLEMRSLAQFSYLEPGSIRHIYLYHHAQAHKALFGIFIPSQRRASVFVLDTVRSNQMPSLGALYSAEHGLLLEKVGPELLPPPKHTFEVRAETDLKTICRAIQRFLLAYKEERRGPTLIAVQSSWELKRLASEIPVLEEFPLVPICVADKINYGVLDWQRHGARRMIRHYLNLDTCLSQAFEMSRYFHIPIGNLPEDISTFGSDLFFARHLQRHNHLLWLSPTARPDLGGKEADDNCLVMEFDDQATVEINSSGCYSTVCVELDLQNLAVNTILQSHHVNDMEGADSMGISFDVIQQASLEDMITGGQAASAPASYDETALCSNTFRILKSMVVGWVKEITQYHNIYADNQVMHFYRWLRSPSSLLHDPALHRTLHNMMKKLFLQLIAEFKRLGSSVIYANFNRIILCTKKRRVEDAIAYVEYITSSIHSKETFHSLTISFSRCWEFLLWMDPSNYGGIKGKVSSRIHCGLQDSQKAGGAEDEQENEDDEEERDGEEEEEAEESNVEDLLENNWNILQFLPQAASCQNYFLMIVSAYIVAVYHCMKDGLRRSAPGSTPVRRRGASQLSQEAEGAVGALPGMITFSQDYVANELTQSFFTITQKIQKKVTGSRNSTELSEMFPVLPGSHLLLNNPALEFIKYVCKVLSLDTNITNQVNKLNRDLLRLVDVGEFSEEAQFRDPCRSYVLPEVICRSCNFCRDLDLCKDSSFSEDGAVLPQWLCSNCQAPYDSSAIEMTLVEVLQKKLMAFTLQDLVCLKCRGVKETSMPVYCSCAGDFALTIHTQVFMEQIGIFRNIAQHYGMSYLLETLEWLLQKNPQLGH
# [14] = system: stage IIIB or Stage 1V NSCLC; settings: 21-day cycle, cited from earlier work
compound,measurement,setting,value
"O=c1[nH]cnc2c1ncn2[C@H]1CC[C@@H](CO)O1 [Didanosine, 2′,3′-dideoxyinosine]",Impact of monotherapy: log decrease in HIV-1 RNA,HIV-1 [1],˜0.8 log decrease in HIV-1 RNA for six months to one year
same,Parent drug plasma-serum half-life,[2],0.6 to 2.7 h
same,Adverse events,[3],"Diarrhea, nausea, vomiting, peripheral neuropathy, pancreatitis"
same,EC50,HIV-1 [4],10 nM
same,EC50,HIV-1 [5],2 to 20 nM
Nc1nc(=O)n([C@@H]2CS[C@H](CO)O2)cc1F [Emtricitabine],Impact of monotherapy: log reduction,HIV-1 [1]; at 14 days,˜2 log reduction at 14 days
same,Parent drug plasma-serum half-life,[2],1.0 to 4.0 h
same,Adverse events,[3],Anemia
same,EC50,HIV-1 [4],0.7 to 10 nM
same,EC50,HIV-1 [5],9 to 500 nM
"Nc1ccn([C@@H]2O[C@H](CO)[C@@H](O)C2(F)F)c(=O)n1 [Gemcitabine, β-D-2′,2′-difluorocytidine]",IC50,"[6]; Homo sapiens, Huh-7",240 nM
same,"clinical benefit response, survival, and time to disease progression compared to 5-FU",[7],statistically significant increases
same,plasma protein binding,[8],negligible
same,ADVERSE EFFECTS,[9],"Thrombocytopenia,"
same,dose-limiting toxicity,[9],myelosuppression
same,Km,[10],3.6 µM
same,Km,cytidine deaminase,96 µM
same,reduction of the replicon HCV RNA (FIG. 2),HCV replicon RNA; 4-days incubation,dose-dependant reduction
same,EC90,"HCV replicon RNA; Hepatitis C virus, Huh-7, 96 h, Huh7 cells, 4-days incubation, read-out: EC90 (1-log reduction of replicon RNA) (converted)",~70 nM
same,EC50,"HCV replicon RNA; Hepatitis C virus, Huh-7, Huh7 cells harboring self-replicating HCV RNA, read-out: EC50, reduction of HCV RNA levels",40 nM
same,baseline viral load,"HCV; before the second dosage, day after first 1200 mg dose",6.49 log copies/mL
same,HCV RNA measurement,HCV; eight hours after the second dosage (approximately 700 mg),4.04 log copies/mL
same,drop in HCV RNA,HCV; in eight hours after the second dosage,~2.5 log
same,clinical benefit response rate,pancreatic cancer,27%
same,median survival,pancreatic cancer,3.9 months
same,half-life,[11]; after short infusion (<70 min),0.533 to 1.53 h
same,Volume of distribution,"[11]; human, in vivo",370 L/m^2
NC(=O)c1ncn([C@@H]2O[C@H](CO)[C@@H](O)[C@H]2O)n1 [Ribavirin],teratogenicity,[12],teratogenic
"Cc1cn([C@H]2C=C[C@@H](CO)O2)c(=O)[nH]c1=O [Stavudine, 3′-deoxy-2′,3′-didehycrothymidine]",Impact of monotherapy: log decrease in HIV-1 RNA,HIV-1 [1],˜0.8 log decrease in HIV-1 RNA for six months to one year
same,Parent drug plasma-serum half-life,[2],1.0 to 1.6 h
same,Adverse events,[3],Peripheral neuropathy
same,EC50,HIV-1 [4],9 nM
same,EC50,HIV-1 [5],1 to 25000 nM
"Nc1ccn([C@H]2CC[C@@H](CO)O2)c(=O)n1 [Zalcitabine, 2′,3′-dideoxycytidine]",Impact of monotherapy (comparison in words),HIV-1 [1]; in vivo,Less effective than either ddI or AZT
same,Parent drug plasma-serum half-life,[2],1.0 to 3.0 h
same,Adverse events,[3],"Peripheral neuropathy, mouth ulcers"
same,EC50,HIV-1 [4],2 to 160 nM
same,EC50,HIV-1 [5],30 to 50 nM
"Cc1cn([C@H]2CC(N=[N+]=[N-])[C@@H](CO)O2)c(=O)[nH]c1=O (stereo partly shown) [Zidovudine, 1-(3′Azido-2′-deoxyribosyl)thymine]",Impact of monotherapy: log decrease in HIV-1 RNA,HIV-1 [1],One log decrease in HIV-1 RNA for six months to one year 1
same,Parent drug plasma-serum half-life,[2],0.8 to 1.9 h
same,Adverse events,[3],"Nausea, vomiting, headache, neutropenia, anemia, insomnia"
same,EC50,HIV-1 [4],4 to 25 nM
same,EC50,HIV-1 [5],5 to 6 nM
N.N.[Cl][Pt][Cl] [cisplatin],objective response rate,[13],10%
Nc1ccn([C@@H]2O[C@H](CO)[C@@H](O)C2(F)F)c(=O)n1 [cytidine analog],inhibition of polyerythroblastosis,friend leukemia virus,90%
same,inhibition of spleen enlargement,friend leukemia virus,90%
Nc1ccn([C@@H]2O[C@H](COP(=O)(O)OP(=O)(O)OP(=O)(O)O)[C@@H](O)C2(F)F)c(=O)n1 [dFdCTP],preference of the polymerase for the normal nucleotide (dCTP),human DNA polymerase a,20 fold
same,preference of the polymerase for the normal nucleotide (dCTP),human DNA polymerase ε,20 fold
"O=c1ccn([C@@H]2O[C@H](CO)[C@@H](O)C2(F)F)c(=O)[nH]1 [dFdU, 2′,2′-difluorodeoxyuridine]",dCt rRNA,[6]; 7.0 μM,1.96
same,dCT HCV,HCV replicon RNA; 7.0 μM,6.39
same,ddct,"HCV replicon RNA; 7.0 μM, HCV dCt minus rRNA dCt",4.42
Nc1ccn([C@H]2C[C@H](O)[C@@H](CO)O2)c(=O)n1 [deoxycytidine],Km,[10],1.6 µM
Nc1ccn([C@@H]2O[C@H](CO)[C@@H](O)C2(F)F)c(=O)n1 [gemcitabine HCl],tolerance,HCV; 1200 mg in 1000 minutes associated with oxaliplatine,acceptable
Abacavir,Impact of monotherapy: log reduction in HIV-1 RNA,HIV-1 [1]; at four weeks,Approximate 1.8 log reduction in HIV-1 RNA at four weeks
same,Parent drug plasma-serum half-life,[2],1.0 to 2.0 h
same,Adverse events,[3],"Nausea, vomiting, headache, (hypersensi- tivity reaction)"
same,EC50,HIV-1 [5],4100 nM
gemcitabine plus cisplatin,median time to disease progression and objective response rates compared to etoposide plus cisplatin,[14],significantly greater
same,"survival, difference between the two treatment arms",[14]; vs etoposide plus cisplatin,no significant difference
same,objective response rate,[13],26%
same,Median survival time and median time to disease progression compared to cisplatin alone,[13],significantly greater
